For assay [1], the species on record is Homo sapiens. Kind of assay: Competitive molecular glue activity at Strep-tagged EGFP-FKBP12 (unknown origin) extracted from Escherichia coli BL21 gold cells/6 His-tagged PTPRN (unknown origin) assessed as ternary complex formation incubated for 30 mins by HTRF assay. For orientation: TR-FRET usually uses a lanthanide donor and a delayed reading to cut background.

For assay [2], the species on record is Homo sapiens. Description: Competitive molecular glue activity at fluorescein maleimide-labeled FKBP12 C22V/E108C mutant (unknown origin)/6 His-tagged PTPRN (unknown origin) assessed as ternary complex formation incubated for 30 mins in presence of FKBP12 ligand 18(S)-Me 29 by fluorescence polarization analysis. (Polarisation of emitted light reports the rotation of a fluorescent probe.)

Assay [3] is filed under the species Homo sapiens. Kind of assay: Competitive molecular glue activity at fluorescein maleimide-labeled FKBP12 C22V/E108C mutant (unknown origin)/6 His-tagged PTPRN (unknown origin) assessed as ternary complex formation incubated for 30 mins by fluorescence polarization analysis.
The species entered for assay [4] is Homo sapiens. Description: Competitive molecular glue activity at fluorescein maleimide-labeled FKBP12 C22V/E108C mutant (unknown origin)/6 His-tagged BRD4 BD2 domain (unknown origin) assessed as ternary complex formation incubated for 30 mins in presence of FKBP12 ligand 18(S)-Me 29 by fluorescence polarization analysis.
Assay [5] concerns the target Bromodomain-containing protein 4 (Homo sapiens) (UniProt O60885). Kind of assay: Displacement of fluorescent JQ1 from BRD4 BD2 (unknown origin) incubated for 30 mins by fluorescence polarization analysis.
The nature of assay [6]: Competitive molecular glue activity at fluorescein maleimide-labeled FKBP12 C22V/E108C mutant (unknown origin)/6 His-tagged BRD4 BD2 domain (unknown origin) assessed as ternary complex formation by measuring dissociation constant incubated for 30 mins by fluorescence polarization analysis. On the set-up: species or system Homo sapiens.
For assay [7], the species on record is Homo sapiens. Kind of assay: Competitive molecular glue activity at fluorescein maleimide-labeled FKBP12 C22V/E108C mutant (unknown origin)/6 His-tagged BRD4 BD1 domain (unknown origin) assessed as ternary complex formation incubated for 30 mins by fluorescence polarization analysis.
The species entered for assay [8] is Homo sapiens. Kind of assay: Competitive molecular glue activity at fluorescein maleimide-labeled FKBP12 C22V/E108C mutant (unknown origin)/6 His-tagged BRD4 BD2 domain (unknown origin) assessed as ternary complex formation incubated for 30 mins in presence of JQ1 by fluorescence polarization analysis.
Assay [9] is filed under the species Homo sapiens. Description: Competitive molecular glue activity at fluorescein maleimide-labeled FKBP12 C22V/E108C mutant (unknown origin)/6 His-tagged MBP-STAT4 (unknown origin) assessed as ternary complex formation incubated for 30 mins by fluorescence polarization analysis.
For assay [10], the species on record is Homo sapiens. Kind of assay: Competitive molecular glue activity at Strep-tagged EGFP-FKBP12 (unknown origin) extracted from Escherichia coli BL21 gold cells/6 His-tagged MBP-STAT4 (unknown origin) assessed as ternary complex formation incubated for 30 mins by HTRF assay.
Assay [11] is filed under the species Homo sapiens. Description: Competitive molecular glue activity at fluorescein maleimide-labeled FKBP12 C22V/E108C mutant (unknown origin)/6 His-tagged MBP-STAT4 (unknown origin) assessed as ternary complex formation incubated for 30 mins in presence of FKBP12 ligand 18(S)-Me 29 by fluorescence polarization analysis.
The species named for assay [12] is Homo sapiens. Kind of assay: Competitive molecular glue activity at Strep-tagged EGFP-FKBP12 (unknown origin) extracted from Escherichia coli BL21 gold cells/6 His-tagged BRD4 BD2 domain (unknown origin) assessed as ternary complex formation incubated for 30 mins by HTRF assay.
For assay [13], the species on record is Homo sapiens. Kind of assay: Competitive molecular glue activity at fluorescein maleimide-labeled FKBP12 C22V/E108C mutant (unknown origin)/6 His-tagged BRD4 BD2 domain (unknown origin) assessed as ternary complex formation incubated for 30 mins by fluorescence polarization analysis.

The source of these data is ChEMBL document CHEMBL6134911, “Broad Target Screening Reveals Abundance of FKBP12-Based Molecular Glues in Focused Libraries” (J Med Chem, 2025).

Active and inactive are the calls of the source. The calls are words filed in the database; no cut-off is given here.

For the compound `COc1ccc(CC[C@@H](OC(=O)[C@@H]2CCCCN2S(=O)(=O)c2cc3c(c([N+](=O)[O-])c2)OCC3)c2cccc(CC(=O)O)c2)cc1OC`, the Activity entry in the assay listed under Homo sapiens [1] and in the assay listed under Homo sapiens [3] was “Dose-dependent-effect” each time. Moreover, in the assay filed under Homo sapiens [2], the outcome was inactive.
Broadly, the Kd is the constant that tells how readily two partners part at equilibrium. Turning to `C=C[C@@H]1CN(Cc2cn(-c3ccc(OC)c(OC)c3)nn2)C(=O)[C@@H]2CCC[C@H]1N2S(=O)(=O)c1cc(Cl)cc(Cl)c1`, the outcome (in the assay filed under Homo sapiens [4]; in assay [5]; in the assay filed under Homo sapiens [7]; in the assay listed under Homo sapiens [8]) was inactive. Also, the dissociation constant (Kd) in assay [6] came out at 27 µM.
Turning to `C=C[C@H]1CN(Cc2ccccn2)C(=O)[C@@H]2CCC[C@H]1N2S(=O)(=O)c1cc(-c2ccccc2)c2nc(-c3ccccc3)sc2c1`, the Activity result in the assay listed under Homo sapiens [9] and in the assay filed under Homo sapiens [10] was “Dose-dependent-effect” throughout. Further, the result in the assay filed under Homo sapiens [11] was inactive.
On to `C=C[C@@H]1CN(Cc2cn(-c3ccc(OC)c(Cl)c3)nn2)C(=O)[C@@H]2CCC[C@H]1N2S(=O)(=O)c1cc(Cl)cc(Cl)c1`, for which the Kd in assay [6] was 83 µM.
In the case of `C=C[C@@H]1CN(Cc2cn(-c3ccc4[nH]ncc4c3)nn2)C(=O)[C@@H]2CCC[C@H]1N2S(=O)(=O)c1cc(Cl)cc(Cl)c1`, the Kd in assay [6] turned out to be 96 µM.
On the same count and under the same terms, the value for `C=C[C@@H]1CN(Cc2cn(-c3ccc(C(C)=O)c(OC)c3)nn2)C(=O)[C@@H]2CCC[C@H]1N2S(=O)(=O)c1cc(Cl)cc(Cl)c1` was 22 µM.
On the same count and under the same terms, the value for `C=C[C@@H]1CN(Cc2cn(-c3ccc(OC(C)C)cc3)nn2)C(=O)[C@@H]2CCC[C@H]1N2S(=O)(=O)c1cc(Cl)cc(Cl)c1` was 144 µM.
Consider `C=C[C@@H]1CN(Cc2cn(-c3ccc(OC)cc3)nn2)C(=O)[C@@H]2CCC[C@H]1N2S(=O)(=O)c1cc(Cl)cc(Cl)c1`, for which the result in the assay filed under Homo sapiens [4] was inactive. Also, the Activity entry in the assay filed under Homo sapiens [12] and in the assay filed under Homo sapiens [13] was “Dose-dependent-effect” throughout. For the same compound, the Kd in [6] is 394 µM.
With `C=C[C@@H]1CN(Cc2cn(-c3cc(OC)c(OC)c(OC)c3)nn2)C(=O)[C@@H]2CCC[C@H]1N2S(=O)(=O)c1cc(Cl)cc(Cl)c1`, the Kd in assay [6] was above 500 µM.
For the compound `C=C[C@@H]1CN(Cc2cn(-c3ccc(N(C)C)cc3)nn2)C(=O)[C@@H]2CCC[C@H]1N2S(=O)(=O)c1cc(Cl)cc(Cl)c1`, the dissociation constant Kd in [6] came to 115 µM.
As for `C=C[C@@H]1CN(Cc2cn(-c3ccc(C(C)=O)cc3)nn2)C(=O)[C@@H]2CCC[C@H]1N2S(=O)(=O)c1cc(Cl)cc(Cl)c1`, the Kd in [6] was 47 µM.
